According to patent US5776433A, “Flunisolide aerosol formulations” (Minnesota Mining and Manufacturing Company, priority 1995, dated 1998):

Format: physicochemical
Excerpt: This intermediate level of solubility can lead to particle size increase of the drug in a suspension formulation. It is well known that particles having a diameter of greater than about 10 μm are not suitable for inhalation to the lung. Therefore particle size increase can threaten the utility of a pharmaceutical aerosol formulation.

CC1(C)O[C@@H]2C[C@H]3[C@@H]4C[C@H](F)C5=CC(=O)C=C[C@]5(C)[C@H]4[C@@H](O)C[C@]3(C)[C@]2(C(=O)CO)O1 [flunisolide hemihydrate, 6α-fluoro-11β, 16α, 17,21-tetrahydroxypregna-1,4-diene-3,20-dione cyclic 16,17-acetal with acetone]
solubility in 1:1 blend of HFA 134a and HFA 227: about 0.007 % by weight | solubility in HFA 134a: about 0.006 % by weight | solubility in HFA 227: about 0.004 % by weight
